The source of these data is patent publication US20240317748A1, “CARBONYL SUBSTITUTED DIAZASPIRO COMPOUNDS AND ITS USE” (BIONOVA PHARMACEUTICALS (SHANGHAI) LIMITED, priority 2021, published 2024).

Structures are written as SMILES.

The test system of one assay is MV-4-11 cells. Kind of assay: Cell proliferation assay (CellTiter-Glo), MV-4-11. It counts as cell-based, human. The conditions noted are these: Homo sapiens, MV4-11, 96 h; MV-4-11 (MLL-AF4), 4 days incubation; read-out: Cell antiproliferation assay MV-4-11 IC50. As to the method: (§1) The antiproliferative activity of test compounds was assessed in human leukemia cell lines. The cell line MV4-11, MOLM13 and OCI-AML3, which expresses the MLL fusion protein MLL-AF4, MLL-AF9 and carry the NPM1c gene mutation, respectively, were tested. HL-60 was used as a control cell line containing two MLL wildtype alleles in order to exclude compounds that display general cytotoxic effect. MV4-11 cells were cultured in IMDM supplemented with 10% FBS, MOLM13 and OCI-AML3 cells were cultured in RPMI1640 supplemented with 20% FBS, and HL-60 cells were cultured in IMDM supplemented with 20% FBS. Corresponding cells (MV4-11, MOLM13, OCI-AML3 or HL-60 cell line) were seeded in 100 uL medium per well in 96-well plate (white wall with clear bottom, tissue culture treated, Corning, Cat. No. CLS3903; Lot.No. 30419025). Plates were placed in the CO2 incubator overnight. Compounds solution (2 mM starting, 4-fold serial dilution) were prepared and added to the wells containing 100 μL of the culture medium with HPD300 according to the plate map and centrifuge at 1000 rpm for 1 minutes (200-fold dilution totally). MV4-11, MOLM13, OCI-AML3 and HL-60 cells were incubated with the compounds for 4, 12, 5 and 4 days, respectively, under 5% CO2 at 37° C., respectively. 100 μL of CellTiter-Glo reagent (Promega, Cat. No. G7573, Lot. No. 0000416710) was added to the assay plate by Multidrop Combi instrument, contents were mixed for 10 minutes on an orbital shaker to induce cell lysis. After incubation at room temperature for 10 mins, clear bottom with white back seal was pasted and luminescence with Envision was read.
(ATP-based viability assays read luminescence as a measure of living cells.)

Another assay concerns the target T1, Menin-MLL1 (Homo sapiens, UniProt O00255).
T1 construct: Menin (2-610) isform2; purchased ChemPartner 2020111101
T1 sequence (O00255 2-610): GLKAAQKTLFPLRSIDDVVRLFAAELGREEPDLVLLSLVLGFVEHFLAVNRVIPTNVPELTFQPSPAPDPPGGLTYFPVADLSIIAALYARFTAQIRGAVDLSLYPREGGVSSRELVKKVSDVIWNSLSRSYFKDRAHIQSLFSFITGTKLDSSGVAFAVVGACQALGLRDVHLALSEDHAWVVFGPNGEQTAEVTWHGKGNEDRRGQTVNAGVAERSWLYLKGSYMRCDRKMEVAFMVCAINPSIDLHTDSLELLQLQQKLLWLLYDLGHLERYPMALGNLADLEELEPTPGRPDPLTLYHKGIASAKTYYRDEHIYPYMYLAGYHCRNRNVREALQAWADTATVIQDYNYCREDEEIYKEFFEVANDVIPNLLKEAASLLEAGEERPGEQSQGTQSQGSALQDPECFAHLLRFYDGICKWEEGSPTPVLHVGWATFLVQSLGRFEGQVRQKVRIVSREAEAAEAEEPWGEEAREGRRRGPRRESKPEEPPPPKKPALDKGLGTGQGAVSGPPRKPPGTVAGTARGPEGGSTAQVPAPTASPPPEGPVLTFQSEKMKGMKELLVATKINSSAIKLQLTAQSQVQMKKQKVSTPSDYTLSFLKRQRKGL
The assay is described as follows: Menin-MLL1 inhibition assay (fluorescence polarization, Menin protein + FAM-MLL peptide). The conditions noted are these: Menin (2-610) isoform 2, FAM-labelled MLL peptide, mP readout; read-out: Biochemical assay Menin-MLL1 IC50. The class given is binding. As to the method: 1× assay bu9ffer (Tris 7.5 50 mM, NaCl 50 mM, DTT 1 mM, Tween-20 0.01%) was prepared and test compounds solution (10 mM in DMSO, Sigma, Cat. No. 34869) were transferred to assay plate (384-well plate, Perkin Elmer, Cat. No. 6007279) by Echo. The final fraction of DMSO is 1%. 20 nM of Menin protein (Menin (2-610) isform2, ChemPartner, Cat. No. 2020111101) in 1× assay buffer was added to prepare 2× enzyme solution. Then 10 nM of MLL-peptide (Ac-SRWRFPARPGTGRR-Ahx-Ahx-K(FAM)-NH2, GL Biochem (Shanghai)), Cat. No. 833831/202009220104) in 1× assay buffer was added to prepare 2× substrate solution. 10 μL of 2× enzyme solution was transferred to assay plate or 10 μL of 1× assay buffer for low control group. 10 μL of 2× substrate solution was added to each well to start reaction. mP data on Envision (Ex480/Em535(s), Em535(p)) was collected.
Compound potencies were determined by first calculating % inhibition at each compound concentration according to equation 1:
Inhibition %=(Max−Signal)/(Max−Min)*100 (Equation 1)
Y=Bottom+(Top-Bottom)/(1+(IC50/X)[…]), where Y is % inhibition and X is compound concentration (Equation 2)

In a further assay the test system is HL-60 cells. The assay is described as follows: Cell proliferation assay (CellTiter-Glo), HL-60 control line. The class given is cell-based, human. Conditions: Homo sapiens, 96 h, 4 days incubation; for IC50: HL-60 control line (MLL wildtype), read-out: Cell antiproliferation assay HL-60 IC50; for inhibition at 10 µM: HL-60 control line, read-out: HL-60 (Pct of inhibition at 10 μM). As for the experimental part: as §1

One may read the inhibition as the relative decrease from the control value, in per cent. In the case of `CCN(C(=O)c1cc(F)ccc1Oc1nncnc1N1CC2(CCN(C(=O)[C@H]3NCc4ccccc43)CC2)C1)C(C)C` [Example 85], the IC50 was 76.7 nM in the assay with MV-4-11 cells, 5.5 nM on Menin-MLL1 and more than 10000 nM in the assay on HL-60 cells. Moreover, the inhibition at 10 µM with HL-60 cells is -2.8%.

Turning to `CCN(C(=O)c1cc(F)ccc1Oc1cncnc1N1CC2(CCN(C(=O)[C@@H]3C[C@@H](C)CN3)CC2)C1)C(C)C` [Example 47], the IC50 with MV-4-11 cells was 15.9 nM; on Menin-MLL1 it was 3.7 nM; in the assay on HL-60 cells, more than 10000 nM. Besides, the inhibition at 10 µM with HL-60 cells was -10.6%.

With `CCN(C(=O)c1cc(F)ccc1Oc1cncnc1N1CC2(CCN(C(=O)[C@H]3NC[C@@H]4C[C@@H]43)CC2)C1)C(C)C` [Example 34], the IC50 is 18 nM in the assay on MV-4-11 cells, 4.1 nM at Menin-MLL1 and more than 10000 nM in the assay with HL-60 cells. Besides, the inhibition at 10 µM in the assay with HL-60 cells is -12.2%.

As to `CC(C)N(CCO)C(=O)c1cc(F)ccc1Oc1cncnc1N1CC2(CCN(C(=O)[C@@H]3C[C@@H](F)CN3)CC2)C1` [Example 49], the values for the IC50 in the assay with MV-4-11 cells, on Menin-MLL1 and in the assay on HL-60 cells were 57.3 nM, 3.6 nM and more than 10000 nM, respectively. Moreover, the inhibition at 10 µM in the assay on HL-60 cells was -8.4%.

For `CCN(C(=O)c1cc(F)ccc1Oc1cncnc1N1CC2(CCN(C(=O)[C@@H]3CCCCN3)CC2)C1)C(C)C` [Example 4], the values for the IC50 in the assay with MV-4-11 cells and at Menin-MLL1 were 33.1 nM and 5 nM, respectively.

Take `CO[C@H]1CCN[C@@H]1C(=O)N1CCC2(CC1)CN(c1ncnnc1Oc1ccc(F)cc1-c1ccc(C#N)nc1C1CC1)C2` [Example 101]: the IC50 in the assay on MV-4-11 cells was 6.8 nM; at Menin-MLL1, 6 nM.

For the molecule `CC(C)n1ncc(Cl)c1-c1cc(F)ccc1Oc1cncnc1N1CC2(CCN(C(=O)[C@@H]3C[C@@H](F)CN3)CC2)C1` [Example 58], the results for the IC50 in the assay on MV-4-11 cells, at Menin-MLL1 and with HL-60 cells were 27.1 nM, 3.5 nM and more than 10000 nM, respectively. Besides, in the assay on HL-60 cells, the inhibition at 10 µM was -4.5%.

Consider `CCN(C(=O)c1cc(F)ccc1Oc1cncnc1N1CC2(CCN(C(=O)[C@@H]3C[C@]4(CO)CC4N3)CC2)C1)C(C)C` (stereo partly drawn) [Example 11], for which the IC50 in the assay with MV-4-11 cells stood at 128 nM; on Menin-MLL1, 6.3 nM.

For `C[C@@H]1COCCN1C(=O)c1cc(F)ccc1Oc1cncnc1N1CC2(CCN(C(=O)[C@@H]3C[C@@H](F)CN3)CC2)C1` [Example 51], the values for the IC50 in the assay with MV-4-11 cells and on Menin-MLL1 were 221 nM and 4.3 nM, respectively.

For the molecule `CCN(C(=O)c1cc(F)ccc1Oc1cncnc1N1CC2(CCN(C(=O)[C@@]3(C)CCCN3)CC2)C1)C(C)C` [Example 29], the values for the IC50 with MV-4-11 cells and on Menin-MLL1 were 271 nM and 7 nM, respectively.

With `CCN(C(=O)c1cc(F)ccc1Oc1nncnc1N1CC2(CCN(C(=O)[C@H]3NCC[C@@H]3C(F)F)CC2)C1)C(C)C` [Example 99a, 2-((5-(7-((2S,3S)-3-(difluoromethyl)pyrrolidine-2-carbonyl)-2,7-diazaspiro[3.5]nonan-2-yl)-1,2,4-triazin-6-yl)oxy)-N-ethyl-5-fluoro-N-isopropylbenzamide], the results for the IC50 in the assay on MV-4-11 cells and on Menin-MLL1 were 46.4 nM and 5.4 nM, respectively.

Consider `CCN(C(=O)c1cc(F)ccc1Oc1cncnc1N1CC2(CCN(C(=O)[C@@H]3C[C@]4(CN3)CC4(F)F)CC2)C1)C(C)C` [Example 23], for which the values for the IC50 in the assay with MV-4-11 cells and on Menin-MLL1 were 127 nM and 8.7 nM, respectively.

In the case of `CC(C)N(C(=O)c1cc(F)ccc1Oc1nncnc1N1CC2(CCN(C(=O)[C@H]3NCC[C@H]3C)CC2)C1)C(C)C` [Example 76], the IC50 with MV-4-11 cells was 16.7 nM; at Menin-MLL1, 3.7 nM.

On to `N#Cc1ccc(-c2cc(F)ccc2Oc2nncnc2N2CC3(CCN(C(=O)[C@H]4NC[C@@H]5C[C@@H]54)CC3)C2)c(C2CC2)n1` [Example 94], for which the IC50 with MV-4-11 cells stood at 11.8 nM; at Menin-MLL1, 3.4 nM.

Turning to `CCN(C(=O)c1cc(F)ccc1Oc1nnc(Cl)nc1N1CC2(CCN(C(=O)[C@H]3NC[C@@H]4C[C@@H]43)CC2)C1)C(C)C` [Example 91], the IC50 was found to be 248 nM in the assay with MV-4-11 cells and 7.3 nM on Menin-MLL1.

Consider `O=C([C@H]1NC[C@@H]2C[C@@H]21)N1CCC2(CC1)CN(c1ncnnc1Oc1ccc(F)cc1-c1cncnc1C1CC1)C2` [Example 80], for which the IC50 is 39 nM in the assay on MV-4-11 cells, 4.3 nM on Menin-MLL1 and more than 10000 nM with HL-60 cells. For the same molecule, the inhibition at 10 µM in the assay with HL-60 cells was determined as 0%.

Turning to `COCCN(C(=O)c1cc(F)ccc1Oc1cncnc1N1CC2(CCN(C(=O)[C@@H]3C[C@@H](F)CN3)CC2)C1)C(C)C` [Example 50], the IC50 in the assay on MV-4-11 cells was 120 nM; on Menin-MLL1, 4.4 nM.

On to `CCN(C(=O)c1cc(F)ccc1Oc1cncnc1N1CC2(CCN(C(=O)[C@@H]3C[C@@]4(C)C[C@H]4N3)CC2)C1)C(C)C` [Example 9], for which the IC50 was determined as 40.7 nM in the assay with MV-4-11 cells and 12.9 nM at Menin-MLL1.

In the case of `CCN(C(=O)c1cc(F)ccc1Oc1nncnc1N1CC2(CCN(C(=O)[C@H]3NC[C@@H]4CC(F)(F)C[C@@H]43)CC2)C1)C(C)C` (single isomer, unassigned) [Example 98d], the figures for the IC50 in the assay on MV-4-11 cells and on Menin-MLL1 were 29.5 nM and 2.3 nM, respectively.

Turning to `CCN(C(=O)c1cc(F)ccc1Oc1nncnc1N1CC2(CCN(C(=O)[C@@H]3NC[C@@H](C)[C@H]3C)CC2)C1)C(C)C` [Example 93], the IC50 with MV-4-11 cells amounted to 457 nM; on Menin-MLL1, 24.8 nM.

Regarding `CCN(C(=O)c1cc(Cl)ccc1Oc1cncnc1N1CC2(CCN(C(=O)[C@@H]3C[C@@H](F)CN3)CC2)C1)C(C)C` [Example 19], the IC50 was 40.2 nM with MV-4-11 cells and 5 nM at Menin-MLL1.

With `CCN(C(=O)c1cc(F)ccc1Oc1cncnc1N1CC2(CCN(C(=O)[C@@H]3C[C@@]4(CN3)CC4(F)F)CC2)C1)C(C)C` [Example 24], the IC50 in the assay on MV-4-11 cells was 102 nM; at Menin-MLL1, 8 nM.

`CCN(C(=O)c1cc(F)ccc1Oc1cncnc1N1CC2(CCN(C(=O)[C@@H]3C[C@@H](c4ccccc4)CN3)CC2)C1)C(C)C` [Example 48]: the IC50 in the assay with MV-4-11 cells was 144 nM; on Menin-MLL1, 11.4 nM.

With `CCN(C(=O)c1cc(F)ccc1Oc1nncnc1N1CC2(CCN(C(=O)[C@H]3NCC[C@@H]3C3CC3)CC2)C1)C(C)C` [Example 100a], the figures for the IC50 in the assay with MV-4-11 cells and at Menin-MLL1 were 6.9 nM and 2.7 nM, respectively.

In the case of `CC1(C)[C@@H]2[C@@H](C(=O)N3CCC4(CC3)CN(c3ncnnc3Oc3ccc(F)cc3-c3ccc(C#N)nc3C3CC3)C4)NC[C@@H]21` [Example 95], the IC50 came to 5.5 nM with MV-4-11 cells and 2.5 nM on Menin-MLL1.

For the molecule `CCN(C(=O)c1cc(F)ccc1Oc1nncnc1N1CC2(CCN(C(=O)[C@@H]3NC[C@@H]4CC(F)(F)C[C@@H]43)CC2)C1)C(C)C` (single isomer, unassigned) [Example 98b], the IC50 in the assay on MV-4-11 cells came to 2640 nM; at Menin-MLL1 it was 22 nM.

In the case of `CCN(C(=O)c1cc(F)ccc1Oc1nncnc1N1CC2(CCN(C(=O)[C@@H]3NCC[C@H]3CF)CC2)C1)C(C)C` [Example 89], the IC50 in the assay with MV-4-11 cells is 1010 nM; at Menin-MLL1 it was 24 nM.
